Consider one compound from US11795510B2, “Identification of epigenomic reprogramming in cancer and uses thereof” (The Johns Hopkins University, priority 2016, dated 2023).

Common to all, as to type: cell-based, human
Assay [1] has as its system global chromatin modifications (H3K9Me2/3, acetylation) in distant metastatic subclones (A38Lg). As to the kind of experiment: Western blots of histone modifications, distant metastatic subclones. The method, then: Histones were acid extracted as described and western blots performed on 3.5 ug histones, which were checked by Ponceau stains prior to western blot to ensure equal loading. Densitometry was performed with ImageJ software. RNA was extracted with Trizol reagent (Life Technologies) and isopropanol precipitated. Genomic DNA was purified with MasterPure DNA extraction reagents (Epicenter). Immunohistochemistry, H&E staining, and immunofluorescence on formalin-fixed, paraffin-embedded (FFPE) tissue microarray sections (TMAs) were performed according to standard procedures.
(§1) RNAi experiments were performed with siRNA transfections (Oligofectamine, Life Technologies) using negative control siRNA (Sigma, SIC001) and pre-designed siRNA oligonucleotides against indicated genes in parallel (Sigma, PGD: SASI_Hs02 00334150, CDH2: SASI_Hs01_00153995, TOP2B: SASI_Hs02_00311874). siRNAs against mutant KRAS^G12V (CUACGCCAACAGCUCCAAC) (SEQ ID NO:1) were custom designed. Cells were incubated with siRNAs for 4 days after transfection and harvested. For drug treatments in 2-D, cells were grown to 70-80% confluency and treated for 3 days with 250 uM 6AN or DMSO negative control.
In general terms: A western blot detects proteins with antibodies after separation by electrophoresis.

In assay [2] the test system is distant metastatic and precursor subclones. As to the kind of experiment: YSI metabolite analysis (glucose/glutamine consumption, lactate/glutamate secretion). The method, then: Tissue samples and cell lines were previously collected from PDAC patients by rapid autopsy, sequenced-validated, and monitored for mycoplasma as previously described. Low passage (2-17) rapid autopsy cell lines were cultured at 37° C. in DMEM with 10% fetal bovine serum (FBS, Gibco). For MTT assays, 15,000 cells/well were plated into 96 well plates in triplicate, treated 12 hours later, and assayed after 24 hr (glucose responses) or 6 days (chemotherapy) with CellTiter96 (Promega). For glucose response assays, nutrient-deplete DMEM (no glucose, glutamine, pyruvate, or serum) was used with addition of glucose as indicated. […] Cells were then washed with PBS, trypsinized, and viable cells counted with a hemocytometer. Glucose uptake and lactate secretion were measured with a YSI 7100 Bioanalyzer as described in the supplementary methods. […]
YSI metabolite analysis. Metabolite consumption (glucose and glutamine) and production (lactate and glutamate) were measured using a YSI 7100 Bioanalyzer. […] At day 0 cells were counted (3 wells) or cultured in either regular medium or medium supplemented with the indicated compound. […] The area under the curve (AUC) was calculated as N(T)d/ln2([…]), where N(T) is the final cell count, d is doubling time, and T is time of experiment. […]

Assay [3] relates to distant metastatic and primary tumor precursor subclones. Kind of assay: 3-D matrigel tumor forming assay, distant metastatic subclones. Here is the method: as §1
3-D matrigel assays were adapted from Cheung et al. (Control of alveolar differentiation by the lineage transcription factors GATA6 and HOPX inhibits lung adenocarcinoma metastasis. Cancer Cell 23, 725-38 (2013)). […] Well-formed tumors were then counted and representative photographs taken with an EVOS instrument. 3-D suspension tumorsphere assays were performed with 20,000 starting cells/well in ultra-low attachment 6 well plates as described, and tumors counted/photographed after at least 7 days of tumor growth.

Assay [4] relates to distant metastatic subclones. Kind of assay: 3-D suspension tumorsphere assay, distant metastatic subclones. Here is the method: 3-D matrigel assays were adapted from Cheung et al. (Control of alveolar differentiation by the lineage transcription factors GATA6 and HOPX inhibits lung adenocarcinoma metastasis. Cancer Cell 23, 725-38 (2013)). Briefly, 2-D cultures were trypsinized into single cells, 4,000cells/mL were suspended and thoroughly mixed in ice-cold DMEM containing 5% matrigel (BD systems) and 2% FBS (+/−DMSO/6AN as needed), 500 ul plated in quadruplicate into 24 well ultra-low attachment plates, and incubated for at least 7 days to allow tumor growth. Well-formed tumors were then counted and representative photographs taken with an EVOS instrument. 3-D suspension tumorsphere assays were performed with 20,000 starting cells/well in ultra-low attachment 6 well plates as described, and tumors counted/photographed after at least 7 days of tumor growth.

Assay [5] deals with H3K9Me2 and H3K27Ac across CDH2 and TOP2B gene loci. As to the kind of experiment: ChIP-qPCR across CDH2 and TOP2B loci. The method, then:
Tests for statistical significance (two-tailed students t-test) were performed on data collected from technical replicate (performed in parallel at the same time) or biological replicate (performed at different times) experiments as indicated in the figure legends using excel software for western blot densitometry, MTT assays, and tumor measurements. Whole genome bisulfite sequencing and RNA-seq were performed with HiSeq instruments (Illumina) as described in Hansen et al. (Increased methylation variation in epigenetic domains across cancer types. Nat Genet 43, 768-75 (2011)). ChIP assays were performed as previously described for fixed cells with sonication. For ChIP-qPCR, equal amounts of paired input/IP DNA were amplified by real-time PCR (Roche LightCycler96) and fold enrichments calculated. Primer sequences are listed in Supplementary Table 11. […] IP sequencing reads were normalized to their corresponding inputs. Sequencing procedures, bioinformatics methods including domain calls, and statistical analyses are described in detail within the supplementary methods section.
(In general: In qPCR the cycle at which signal appears reflects the starting amount.)

“Also recorded” adds a separate entry of the source.

In the case of `NC(=O)c1ccc(N)nc1` [6AN, 6-aminonicotinamide], in assay [1] (3d treatment followed by removal for an additional 3d), the “persistence of chromatin changes upon removal of 6AN from the media” value is given as “persisted”. Further, the “H3K27Me3 or H4K20Me3, western blot densitometry” value in assay [1] (across distant metastatic subclones) was “minimal or non-recurrent effects”. Moreover, the “reprogrammed chromatin modifications (H3K9Me2, acetylation), western blot densitometry” value in assay [1] (across distant metastatic subclones, 250 uM, 3 days) is “quantitatively reversed; also recorded: selectively reversed”. In assay [1] (distant metastatic subclones), the “acetylation (western blot)” value is given as “decreased” and the “global H3K9Me2 (western blot)” value is “generally increased”. Also, the “reprogrammed chromatin state (global H3K9Me2/3 and acetylation, western blots)” value in assay [1] (paired lung metastasis A38Lg) is given as “reversed the reprogrammed chromatin state”. Moreover, in assay [2], the “glutamine consumption or glutamate secretion” value was “no effect”; the “rates of glucose consumption and lactate secretion” value was “selectively slowed”. In addition, the “tumor formation in 3D matrigel assays” value in assay [3] is “selectively and strongly blocked tumor formation; also recorded: ablated tumor formation”. Besides, in assay [4], the “tumor formation in 3-D suspension tumorsphere assays” value was “selectively and strongly blocked tumor formation; also recorded: ablated tumor formation”. For the same compound, in assay [5] (matched lung metastasis A38Lg), the “H3K9Me2 across CDH2/TOP2B loci (ChIP-qPCR)” value is on record as “enrichment of H3K9Me2 across both loci; also recorded: induced spreading of H3K9Me2 across the locus” and the “H3K27Ac over the CDH2 genic region (ChIP-qPCR)” value is “concordant reductions; also recorded: corresponding loss of H3K27Ac”. In addition, in assay [5] (peritoneal subclone A38Per), the “H3K9Me2 and H3K27Ac enrichments across CDH2/TOP2B loci (ChIP-qPCR), control vs 6AN” value was “nearly identical enrichments; also recorded: no effect”.
